These results are taken from publication PMC7663272, “Discovery of Tricyclic Pyranochromenone as Novel Bruton’s Tyrosine Kinase Inhibitors with In Vivo Antirheumatic Activity” (International Journal of Molecular Sciences, 2020).

The target in one data set is T1, BTK-C481S (Homo sapiens, UniProt Q06187, C481S).
T1 construct: purchased Reaction Biology Corporation
Kind of data set: HotSpot kinase enzymatic assay, mutant BTK. It counts as biochemical. Conditions: vs negative control (DMSO), mean of two separate experiments. From the text: To confirm the role of the electrophilic warhead groups, the acryloyl group of compound 8 was replaced with methylacryloyl (11) and propionyl (12) groups, which are less electrophilic or lack an electrophilic feature. […] The significant difference in the inhibitory activity of compounds 8 and 12 could explain the critical role of the acryloyl moiety in potentiating the BTK inhibitory activity of compound 8. […] It was also confirmed by comparison of the inhibitory activity of the representative compounds (8–10) with electrophilic warheads against wild-type BTK (BTK-wt) and mutant BTK (BTK-C481S).
Kinase enzymatic assays for BTK, BMX, TXK, TEC, ITK, EGFR, ERBB2, ERBB4, and JAK3 were performed at Reaction Biology Corporation (www.reactionbiology.com, Malvern, PA, USA) using the HotSpot assay platform. Briefly, specific kinase/substrate pairs and the required cofactors were prepared in a reaction buffer comprising 20 mM HEPES (pH 7.5), 10 mM MgCl2, 1 mM EGTA, 0.02% Brij35, 0.02 mg/mL BSA, 0.1 mM Na3VO4, 2 mM DTT, and 1% DMSO. The compounds were added to the reaction mixture and allowed to incubate. Approximately 20 min later, a mixture of ATP (Sigma-Aldrich, St. Louis, MO, USA) and ^33P ATP (PerkinElmer, Waltham, MA, USA) was added to the reaction mixture at a final concentration of 10 μM. The reactions were performed at room temperature for 120 min; subsequently, the reactions were spotted onto P81 ion exchange filter papers (Whatman Inc., Maidstone, UK). Any unbound phosphate was removed by thoroughly washing the filter papers with 0.75% phosphoric acid. […] GraphPad Prism software was used to obtain the IC50 values and perform curve fitting.

Data set [1] can be described thus: GIT-PAMPA in vitro permeability assay. The data set is classed as in vitro ADME. The procedure: GIT-PAMPA was performed according to the manufacturer’s instructions (Pion Inc., Billerica, MA, USA). Briefly, the test compound was diluted in donor buffer (pH 7.4) to obtain a concentration of 50 μM. Then, 200 μL of this solution was added to the lower part of a 96-well PAMPA sandwich plate. The transmembrane side of the donor part was coated with a GIT-0 lipid solution, and 200 μL of the acceptor buffer was added to the upper part of the PAMPA sandwich plate. After incubating for 4 h at 25 °C, each sample was transferred to a fresh UV plate, after which the UV spectra were measured at wavelengths of 250–498 nm, and the permeability rate (Pe, 10^−6 cm/sec) was analyzed using the Pion PAMPA Explorer software (version 3.8, Pion Inc., Billerica, MA, USA).
(In general: The PAMPA barrier holds no transporters, so it reflects passive diffusion.)

Data set [2] concerns TNF-α production in LPS-stimulated THP-1 cells. Kind of data set: LPS-induced TNF-α release in THP-1 cells (ELISA). The data set is classed as cell-based, human. From the text: BTK plays a critical role in high-affinity IgE receptor (FcεRI) and B cell receptor (BCR) signaling, resulting in the release of proinflammatory cytokines. Therefore, BTK inhibitor treatment can reduce the production of both lymphoid and myeloid cytokines. […] We examined the cellular effects of compound 8 on the production of cytokines IL-6 and TNF-α in LPS-stimulated THP-1 cells. Following treatment with LPS alone or LPS and compound 8, the levels of cytokines secreted by THP-1 cells were assessed (Figure 5). LPS increased the output of proinflammatory cytokines.
THP-1 cells were obtained from the American Type Culture Collection (ATCC, Manassas, VA, USA). The cells were cultured in RPMI-1640 supplemented with 10% FBS, 1% P/S, and 0.05 mM 2-mercaptoethanol and maintained at 37 °C and 5% CO2 in a humidified incubator. Cytokine secretion (hIL-6 and TNF-α) in the culture supernatants of the THP-1 cells was measured using a human cytokine ELISA kit (Abcam). Differentiated THP-1 cells were treated with agents and LPS for 24 h, after which the cell culture media was centrifuged at 2000× g for 10 min to remove debris. Briefly, each sample (50 μL) or standard was mixed with the appropriate detection antibody and incubated for 1 h at room temperature on a plate shaker. […] Subsequently, 100 μL of stop solution was added to each well, and the optical density (OD) was measured at 450 nm. […]

Another data set deals with T2, CYP2D6 (Homo sapiens, UniProt P10635).
T2 construct: purchased Promega V9890
T2 sequence (P10635 whole entry): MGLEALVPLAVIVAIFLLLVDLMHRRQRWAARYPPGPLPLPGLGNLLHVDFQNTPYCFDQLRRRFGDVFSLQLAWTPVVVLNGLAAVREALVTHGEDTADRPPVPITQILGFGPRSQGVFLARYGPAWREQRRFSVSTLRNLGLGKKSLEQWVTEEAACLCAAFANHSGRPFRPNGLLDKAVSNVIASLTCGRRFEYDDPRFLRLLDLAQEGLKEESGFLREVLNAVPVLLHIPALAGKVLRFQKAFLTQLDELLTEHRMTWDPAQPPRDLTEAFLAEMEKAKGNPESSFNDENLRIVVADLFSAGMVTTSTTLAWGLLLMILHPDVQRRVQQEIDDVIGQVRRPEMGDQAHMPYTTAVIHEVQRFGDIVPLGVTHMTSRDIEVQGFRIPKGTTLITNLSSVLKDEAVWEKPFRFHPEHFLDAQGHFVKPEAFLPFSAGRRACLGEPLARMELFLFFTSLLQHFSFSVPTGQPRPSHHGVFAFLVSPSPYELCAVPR
Nature of the data set: P450-Glo CYP inhibition assay, CYP2D6. It counts as in vitro ADME. Here is the method: The potential for CYP450 inhibition (CYP1A2, 2C9, 2C19, 2D6, and […]) was assessed using Promega P450-Glo^TM CYP450 assay systems. Luciferin-ME served as the substrate for CYP1A2, and the inhibitor α-naphthoflavone was used as a positive control. Luciferin-H was used as the substrate for CYP2C9, and the inhibitor sulfaphenazole was used as a positive control. Luciferin-H EGE was selected as the substrate for CYP2C19, whereas the inhibitor amitriptyline served as a positive control. Luciferin-ME EGE was used as the substrate for CYP2D6, whereas the inhibitor quinidine served as a positive control. Luciferin-BE was used as the substrate for CYP3A4, whereas the inhibitor ketoconazole was used as a positive control. The assays were performed using the excitation and emission wavelengths recommended by the manufacturer. Briefly, a CYP enzyme and a P450-Glo™ substrate were combined in potassium phosphate (0.1 M KPO4) buffer, with or without a test compound of interest, and […]. The reaction was initiated by adding two volumes of 2 times concentrated NADPH regeneration system. […] Luminescence was subsequently measured using a Tecan Infinite M1000 PRO microplate reader (Tecan Group Ltd., Switzerland). The percent inhibition was calculated relative to that of the positive control at a fixed concentration. […]

T1 sequence (Q06187 whole entry C481S): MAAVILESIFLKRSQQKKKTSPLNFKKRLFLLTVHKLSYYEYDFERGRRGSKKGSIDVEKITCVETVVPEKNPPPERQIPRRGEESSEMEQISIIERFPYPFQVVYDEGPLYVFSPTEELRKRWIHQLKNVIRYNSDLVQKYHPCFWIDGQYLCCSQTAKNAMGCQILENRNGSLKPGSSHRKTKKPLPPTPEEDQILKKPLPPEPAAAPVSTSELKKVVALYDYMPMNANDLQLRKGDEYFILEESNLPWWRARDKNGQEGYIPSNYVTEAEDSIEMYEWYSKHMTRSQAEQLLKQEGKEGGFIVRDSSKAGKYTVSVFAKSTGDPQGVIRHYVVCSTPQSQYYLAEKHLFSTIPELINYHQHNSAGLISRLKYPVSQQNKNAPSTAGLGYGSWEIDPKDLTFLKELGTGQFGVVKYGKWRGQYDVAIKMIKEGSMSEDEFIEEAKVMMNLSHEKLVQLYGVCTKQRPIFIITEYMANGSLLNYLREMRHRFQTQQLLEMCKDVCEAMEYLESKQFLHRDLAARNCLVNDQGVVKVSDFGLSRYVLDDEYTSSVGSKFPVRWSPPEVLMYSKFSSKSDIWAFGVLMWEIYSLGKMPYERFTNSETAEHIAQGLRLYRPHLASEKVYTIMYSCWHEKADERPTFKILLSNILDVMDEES

With `C=CC(=O)O[C@H]1Cc2cc3ccc(=O)oc3cc2OC1(C)C` [Compound 8, (7S)-(+)-Acrylic acid, 8,8-dimethyl-2-oxo-6,7-dihydro-2H,8H-pyrano [3,2-g]chromen-7-yl ester], the inhibition at 10 µM on BTK-C481S was 9.7%. The “permeability (in words)” value in data set [1] was “excellent”. The “production of TNF-α” value in data set [2] (LPS-stimulated differentiated THP-1 cells, 24 h, ELISA) was “significantly and dose-dependently reduced”. In addition, the “inhibitory activity on TNF-α production at 10 μM, compared with ibrutinib” value in data set [2] (compound at 10 μM, ibrutinib at 2 μM) is reported as “comparable with that of ibrutinib at 2 μM”. Also, the “CYP2D6 inhibition (in words)” value on CYP2D6 is reported as “weakly inhibited”. Further, at CYP2D6 (% inhibition of human CYP isozymes at 10 μM), the “CYP inhibition 2D6” value turned out to be 18.9%.

As a reminder, the inhibition is the relative decrease from the control value, in per cent.
